Assay results as given in PubChem BioAssay (NCI).
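Each compound was tested at five concentrations against cells in 96-well plates for 48 hours. GI50: concentration for 50% inhibition of growth. At the TGI there is no net growth.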

What was measured:
Test in all cases: NCI-60 cell line screen, 48 h
OVCAR-8 ovarian = tested on: OVCAR-8 ovarian
RXF 393 renal = tested on: RXF 393 renal
RPMI-8226 leukemia = tested on: RPMI-8226 leukemia
MDA-MB-231 breast = tested on: MDA-MB-231 breast
SN12C renal = tested on: SN12C renal
HCT-15 colon = tested on: HCT-15 colon
SK-MEL-5 melanoma = tested on: SK-MEL-5 melanoma
UO-31 renal = tested on: UO-31 renal
SW-620 colon = tested on: SW-620 colon
BT-549 breast = tested on: BT-549 breast
OVCAR-5 ovarian = tested on: OVCAR-5 ovarian
SK-OV-3 ovarian = tested on: SK-OV-3 ovarian
SF-539 CNS = tested on: SF-539 CNS
OVCAR-4 ovarian = tested on: OVCAR-4 ovarian
HS 578T breast = tested on: HS 578T breast
UACC-62 melanoma = tested on: UACC-62 melanoma
K-562 leukemia = tested on: K-562 leukemia
NCI-H522 lung = tested on: NCI-H522 lung
SF-295 CNS = tested on: SF-295 CNS
MDA-MB-435 = tested on: MDA-MB-435
HCC-2998 colon = tested on: HCC-2998 colon
M14 melanoma = tested on: M14 melanoma
NCI-H460 lung = tested on: NCI-H460 lung
SNB-19 CNS = tested on: SNB-19 CNS
U251 CNS = tested on: U251 CNS
PC-3 prostate = tested on: PC-3 prostate
TK-10 renal = tested on: TK-10 renal
786-0 renal = tested on: 786-0 renal
DU-145 prostate = tested on: DU-145 prostate
NCI-H23 lung = tested on: NCI-H23 lung
UACC-257 melanoma = tested on: UACC-257 melanoma
HOP-62 NSCLC = tested on: HOP-62 NSCLC
HL-60(TB) leukemia = tested on: HL-60(TB) leukemia
MALME-3M melanoma = tested on: MALME-3M melanoma
SK-MEL-2 melanoma = tested on: SK-MEL-2 melanoma
T-47D breast = tested on: T-47D breast
IGROV1 ovarian = tested on: IGROV1 ovarian
NCI-H226 lung = tested on: NCI-H226 lung
CAKI-1 renal = tested on: CAKI-1 renal
COLO 205 colon = tested on: COLO 205 colon
CCRF-CEM leukemia = tested on: CCRF-CEM leukemia
SK-MEL-28 melanoma = tested on: SK-MEL-28 melanoma
MCF7 breast = tested on: MCF7 breast
OVCAR-3 ovarian = tested on: OVCAR-3 ovarian
A549 NSCLC = tested on: A549 NSCLC
HOP-92 NSCLC = tested on: HOP-92 NSCLC
HT29 colon = tested on: HT29 colon
HCT-116 colon = tested on: HCT-116 colon
LOX IMVI melanoma = tested on: LOX IMVI melanoma
NCI/ADR-RES ovarian = tested on: NCI/ADR-RES ovarian
MOLT-4 leukemia = tested on: MOLT-4 leukemia
SNB-75 CNS = tested on: SNB-75 CNS
EKVX NSCLC = tested on: EKVX NSCLC
ACHN renal = tested on: ACHN renal
KM12 colon = tested on: KM12 colon
SF-268 CNS = tested on: SF-268 CNS

`CCOC(=O)CCC(NC(=O)c1ccc(Sc2nc3cc(N)cc(N)c3nc2-c2ccccc2)cc1)C(=O)OCC` (stereo not drawn) was tested, and the GI50 (OVCAR-8 ovarian) was 2.78 µM, the TGI (OVCAR-8 ovarian) was greater than 63 µM and the GI50 (RXF 393 renal) was 3 µM. The TGI (RXF 393 renal) was 19.4 µM, the GI50 (RPMI-8226 leukemia) was 1.62 µM and the TGI (RPMI-8226 leukemia) was greater than 89.8 µM. For the same compound, the GI50 (MDA-MB-231 breast) was 7.96 µM, the TGI (MDA-MB-231 breast) was 35.1 µM and the GI50 (SN12C renal) was 17.7 µM. For the same compound, the TGI (SN12C renal) was 44.5 µM, the GI50 (HCT-15 colon) was 1.8 µM and the TGI (HCT-15 colon) was greater than 65.6 µM. The GI50 (SK-MEL-5 melanoma) was 1.71 µM, the TGI (SK-MEL-5 melanoma) was 5.55 µM and the GI50 (UO-31 renal) was 4.78 µM. The TGI (UO-31 renal) was greater than 100 µM, the GI50 (SW-620 colon) was 2.38 µM and the TGI (SW-620 colon) was greater than 100 µM. It also gave a GI50 (BT-549 breast) of 2.3 µM, a TGI (BT-549 breast) of 36.9 µM and a GI50 (OVCAR-5 ovarian) of 60.5 µM. For the same compound, the TGI (OVCAR-5 ovarian) was greater than 100 µM, the GI50 (SK-OV-3 ovarian) was 2.83 µM and the TGI (SK-OV-3 ovarian) was 53 µM. It also gave a GI50 (SF-539 CNS) of 0.0926 µM, a TGI (SF-539 CNS) of 14.7 µM and a GI50 (OVCAR-4 ovarian) of 2.28 µM. The TGI (OVCAR-4 ovarian) was greater than 73.2 µM, the GI50 (HS 578T breast) was 10.2 µM and the TGI (HS 578T breast) was greater than 87.1 µM. For the same compound, the GI50 (UACC-62 melanoma) was 1.03 µM, the TGI (UACC-62 melanoma) was greater than 62.4 µM and the TGI (K-562 leukemia) was 24.5 µM. It also gave a GI50 (NCI-H522 lung) of 2.76 µM, a GI50 (SF-295 CNS) of 0.939 µM and a TGI (SF-295 CNS) greater than 36.8 µM. The GI50 (MDA-MB-435) was 11.1 µM, the TGI (MDA-MB-435) was 33.5 µM and the GI50 (HCC-2998 colon) was 4.73 µM. It also gave a TGI (HCC-2998 colon) of 17 µM, a GI50 (M14 melanoma) of 3.34 µM and a GI50 (NCI-H460 lung) of 3.05 µM. For the same compound, the TGI (NCI-H460 lung) was greater than 100 µM, the GI50 (SNB-19 CNS) was 4.77 µM and the TGI (SNB-19 CNS) was greater than 100 µM. It also gave a GI50 (U251 CNS) of 1.02 µM, a TGI (U251 CNS) greater than 40.6 µM and a GI50 (PC-3 prostate) of 2.61 µM. It also gave a TGI (PC-3 prostate) greater than 100 µM, a GI50 (TK-10 renal) of 22.4 µM and a TGI (TK-10 renal) greater than 100 µM. For the same compound, the GI50 (786-0 renal) was 4.72 µM, the TGI (786-0 renal) was greater than 100 µM and the GI50 (DU-145 prostate) was 38.2 µM. It also gave a TGI (DU-145 prostate) greater than 100 µM, a GI50 (NCI-H23 lung) of 2.29 µM and a TGI (NCI-H23 lung) greater than 58 µM. It also gave a GI50 (UACC-257 melanoma) greater than 41.4 µM, a TGI (UACC-257 melanoma) greater than 63.6 µM and a GI50 (HOP-62 NSCLC) of 2.23 µM. For the same compound, the TGI (HOP-62 NSCLC) was 47.7 µM, the GI50 (HL-60(TB) leukemia) was 0.298 µM and the TGI (HL-60(TB) leukemia) was greater than 100 µM. It also gave a GI50 (MALME-3M melanoma) of 19.6 µM, a TGI (MALME-3M melanoma) of 37.2 µM and a GI50 (SK-MEL-2 melanoma) of 4.22 µM. For the same compound, the TGI (SK-MEL-2 melanoma) was 72.4 µM, the GI50 (T-47D breast) was greater than 53.9 µM and the TGI (T-47D breast) was greater than 100 µM. For the same compound, the GI50 (IGROV1 ovarian) was 6.91 µM, the TGI (IGROV1 ovarian) was greater than 100 µM and the GI50 (NCI-H226 lung) was 0.97 µM. The TGI (NCI-H226 lung) was greater than 65.9 µM, the GI50 (CAKI-1 renal) was 2.03 µM and the TGI (CAKI-1 renal) was greater than 41.6 µM. The GI50 (COLO 205 colon) was 2.71 µM, the GI50 (CCRF-CEM leukemia) was 1.31 µM and the TGI (CCRF-CEM leukemia) was greater than 100 µM. The GI50 (SK-MEL-28 melanoma) was 0.884 µM, the TGI (SK-MEL-28 melanoma) was 32 µM and the GI50 (MCF7 breast) was 0.626 µM. It also gave a TGI (MCF7 breast) greater than 100 µM, a GI50 (OVCAR-3 ovarian) of 0.73 µM and a TGI (OVCAR-3 ovarian) of 2.88 µM. For the same compound, the GI50 (A549 NSCLC) was 2.9 µM, the TGI (A549 NSCLC) was greater than 100 µM and the GI50 (HOP-92 NSCLC) was 2.74 µM. It also gave a TGI (HOP-92 NSCLC) of 46.2 µM, a GI50 (HT29 colon) of 0.755 µM and a TGI (HT29 colon) greater than 100 µM. For the same compound, the GI50 (HCT-116 colon) was 1.3 µM, the TGI (HCT-116 colon) was greater than 100 µM and the GI50 (LOX IMVI melanoma) was 0.48 µM. The TGI (LOX IMVI melanoma) was greater than 29.3 µM, the GI50 (NCI/ADR-RES ovarian) was 21.6 µM and the TGI (NCI/ADR-RES ovarian) was greater than 100 µM. The GI50 (MOLT-4 leukemia) was 0.726 µM, the TGI (MOLT-4 leukemia) was greater than 100 µM and the GI50 (SNB-75 CNS) was 32.2 µM. For the same compound, the TGI (SNB-75 CNS) was 63.8 µM, the GI50 (EKVX NSCLC) was 13.7 µM and the TGI (EKVX NSCLC) was greater than 77.6 µM. It also gave a GI50 (ACHN renal) of 1.3 µM, a TGI (ACHN renal) of 33.9 µM and a GI50 (KM12 colon) of 2.19 µM. For the same compound, the TGI (KM12 colon) was greater than 86.6 µM, the GI50 (SF-268 CNS) was 2.18 µM and the TGI (SF-268 CNS) was greater than 66.6 µM.
